Where a name gives a salt, the structure may show the parent alone.
system: Candida albicans fungus; test: Microbiologic activity of nistatine (MIC); type: cell-based; conditions: nistatine incorporated to the liposomes of the invention

Molecule	minimum inhibitory concentration (MIC) [µg/mL]
nistatine	16

system: not listed separately; test: Incorporation of different substances into the systems; type: physicochemical; conditions: not given
Experimental: The incorporation was made in the step of formation of the bicelles. Depending on the hydrophilic or lypophilic character of the substance, this was added together with the lipids forming the bicelle in the chloroform step or together with the hydration water. For these preparations, the following blends: DPPC/DHPC, DMPC/DHPC and DOPC/DHPC were selected. The DOPC is dioleoylphosphatidylcholine. The work was carried out with molar rates of the concentrations of both lipids between 2 and 3.5.
The samples were submitted between 10 and 50 sonication cycles in an ultrasound bath for a period of 5 minutes and 5 minutes of freezing until they became clear.
These bicelles, together with the substances internally contained were encapsulated in liposomes in the form described in example 1 and were characterized according to the methods described in example 2.
The nistatine molecule was incorporated to the systems of the invention as described in example 3.

Molecule	encapsulation within the bicelles contained within the liposomes of the invention
CC(C)CCC[C@@H](C)[C@H]1CC[C@H]2[C@@H]3CC=C4C[C@@H](OS(=O)(=O)O)CC[C@]4(C)[C@H]3CC[C@]12C [cholesterol sulfate]	efficiently encapsulated
[Fe] [iron]	efficiently encapsulated
CNC(=O)CN(CCN(CCN(CC(=O)[O-])CC(=O)NC)CC(=O)[O-])CC(=O)[O-].[Gd+3] [gadodiamide]	efficiently encapsulated
O=C(O)Cc1ccccc1Nc1c(Cl)cccc1Cl [dichlophenac]	efficiently encapsulated
ceramides	efficiently encapsulated
O=C(O)c1ccccc1Nc1cccc(C(F)(F)F)c1 [flufenamic acid]	efficiently encapsulated
Cn1c(=O)c2c(ncn2C)n(C)c1=O [caffeine]	efficiently encapsulated

same assay, conditions: high water content system

Molecule	quantity of nistatine incorporated into the system of the invention
nistatine	about 15.75 mg/ml
